This note sets out measurements from patent publication US20260184707A1, “PHARMACEUTICAL COMPOUNDS FOR THE TREATMENT OF COMPLEMENT MEDIATED DISORDERS” (ALEXION PHARMACEUTICALS, INC., priority 2022, published 2026).

The structures appear in SMILES notation. Some results are limits rather than exact numbers.

This experiment concerns the target T1, Human complement C1s enzyme (Homo sapiens, UniProt P09871).
T1 construct: purified from human serum, Complement Technology, Inc; purchased Complement Technology, Inc; host or cells: human serum (plasma-derived native protein)
T1 sequence (P09871 438-688 limits assumed): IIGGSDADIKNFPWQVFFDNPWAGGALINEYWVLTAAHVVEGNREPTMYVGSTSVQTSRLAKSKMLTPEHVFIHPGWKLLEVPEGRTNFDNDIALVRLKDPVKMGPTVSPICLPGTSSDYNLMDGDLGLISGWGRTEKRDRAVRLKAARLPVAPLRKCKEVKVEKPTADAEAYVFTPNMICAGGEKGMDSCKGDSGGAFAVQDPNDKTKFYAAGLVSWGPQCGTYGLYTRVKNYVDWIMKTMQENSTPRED
T1 sequence (P09871 16-437 partner limits assumed): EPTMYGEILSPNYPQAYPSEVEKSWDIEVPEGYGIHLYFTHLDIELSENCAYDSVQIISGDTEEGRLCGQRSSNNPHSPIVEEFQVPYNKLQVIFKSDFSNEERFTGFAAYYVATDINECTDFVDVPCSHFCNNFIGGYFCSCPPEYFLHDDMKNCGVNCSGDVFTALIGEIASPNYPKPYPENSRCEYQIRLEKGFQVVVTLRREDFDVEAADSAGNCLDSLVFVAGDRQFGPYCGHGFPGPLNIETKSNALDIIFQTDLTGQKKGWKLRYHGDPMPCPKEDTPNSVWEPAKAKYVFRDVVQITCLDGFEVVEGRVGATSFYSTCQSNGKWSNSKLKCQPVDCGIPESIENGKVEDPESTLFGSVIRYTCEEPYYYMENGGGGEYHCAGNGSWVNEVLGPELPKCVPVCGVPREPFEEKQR
Briefly: Human C1s enzyme assay. It counts as biochemical. The following applies: human complement C1s enzyme 1.16 nM, substrate Z-L-Lys-SBzl, A405; read-out: IC50 (Stars). The gist of the method: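 Serum-purified human C1s (1.16 nM final) preincubated 5 min at room temperature with compound in 50 mM Tris, 1 M NaCl, pH 7.5. Z-L-Lys-SBzl and DTNB added at 100 μM each; A405 recorded every 30 s. IC50 from nonlinear regression of reaction rates versus compound concentration.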

One may read the IC50 as the midpoint of a concentration-inhibition curve.

Consider `C[C@@H](Nc1cnc(N2CCCCC2)n(CC(=O)NCc2cc3cnccc3[nH]2)c1=O)c1cnc(-c2ccccc2)o1` [Compound 453, (R)—N-((1H-Pyrrolo[3,2-c]pyridine-2-yl)methyl)-2-(6-oxo-5-((1-(2-phenyloxazol-5-yl)ethyl)amino)-2-(piperidin-1-yl)pyrimidin-1(6H)-yl)acetamide], for which the IC50 is less than 100 nM.

As to `O=C(Cn1c(-c2ccccc2)ncc(NCc2nnc(-c3ccccc3)s2)c1=O)NCc1cc2cnccc2[nH]1` [Compound 454, N-((1H-pyrrolo[3,2-c]pyridin-2-yl)methyl)-2-(6-oxo-2-phen-yl-5-(((5-phenyl-1,3,4-thiadia-zol-2-yl)methyl)amino)pyr-imidin-1(6H)-yl)acetamide], the IC50 is less than 100 nM.

As for `Cc1cnc(CNc2cnc(-c3ccccc3)n(CC(=O)NCc3cc4cnccc4[nH]3)c2=O)o1` [Compound 455, N-((1H-pyrrolo[3,2-c]pyridin-2-yl)methyl)-2-(5-(((5-methyl-oxazol-2-yl)methyl)amino)-6-oxo-2-phenylpyrimidin-1(6H)-yl)acetamide], the IC50 was less than 100 nM.

On to `O=C(Cn1c(-c2ccccc2)ncc(NCc2cc(-c3ccccc3F)on2)c1=O)NCc1cc2cnccc2[nH]1` [Compound 456, N-((1H-pyrrolo[3,2-c]pyridin-2-yl)methyl)-2-(5-(((5-(2-fluorophenyl)isoxazol-3-yl)-methyl)amino)-6-oxo-2-phen-ylpyrimidin-1(6H)-yl)acet-amide], for which the half-maximal inhibitory concentration (IC50) is less than 100 nM.

As to `O=C(Cn1c(-c2ccccc2)ncc(NCc2cc(-c3ccccc3)no2)c1=O)NCc1cc2cnccc2[nH]1` [Compound 457, N-((1H-pyrrolo[3,2-c]pyridin-2-yl)methyl)-2-(6-oxo-2-phen-yl-5-(((3-phenylisoxazol-5-yl)methyl)amino)pyrimidin-1(6H)-yl)acetamide], the IC50 was less than 100 nM.

On to `O=C(Cn1c(-c2ccccc2)ncc(NCc2cc(-c3ccccc3)ns2)c1=O)NCc1cc2cnccc2[nH]1` [Compound 458, N-((1H-pyrrolo[3,2-c]pyridin-2-yl)methyl)-2-(6-oxo-2-phen-yl-5-(((3-phenylisothiazol-5-yl)methyl)amino)pyrimidin-1(6H)-yl)acetamide], for which the IC50 is less than 100 nM.

Turning to `C[C@@H](Nc1cnc(N2CCCCC2)n(CC(=O)NCc2cc3cnccc3[nH]2)c1=O)c1coc(-c2ccccc2)n1` [Compound 460, (R)-N-((1H-pyrrolo[3,2-c]pyridin-2-yl)methyl)-2-(6-oxo-5-((1-(2-phenyloxazol-4-yl)-ethyl)amino)-2-(piperidin-1-yl)pyrimidin-1(6H)-yl)acet-amide], the IC50 was 100 to 1000 nM.

For the compound `C[C@@H](Nc1cnc(N2CCOCC2)n(CC(=O)NCc2cc3cnccc3[nH]2)c1=O)c1coc(-c2ccccc2)n1` [Compound 461, (R)—N-((1H-Pyrrolo[3,2-c]pyridine-2-yl)methyl)-2-(2-morpholino-6-oxo-5-((1-(2-phenyloxazol-4-yl)ethyl)amino)pyrimidin-1(6H)-yl)acetamide], the IC50 is less than 100 nM.

Consider `C[C@@H](Nc1cnc(N2CCCCC2)n(CC(=O)NCc2cc3cnccc3[nH]2)c1=O)c1cnc(-c2ccccc2)s1` [Compound 462, (R)-N-((1H-pyrrolo[3,2-c]pyridin-2-yl)methyl)-2-(6-oxo-5-((1-(2-phenylthiazol-5-yl)ethyl)amino)-2-(piperidin-1-yl)pyrimidin-1(6H)-yl)acet-amide], for which the IC50 is less than 100 nM.

In the case of `C[C@@H](Nc1cnc(N2CCCCC2)n(CC(=O)NCc2cc3cnccc3[nH]2)c1=O)c1csc(-c2ccccc2)n1` [Compound 463, (R)-N-((1H-pyrrolo[3,2-c]pyridin-2-yl)methyl)-2-(6-oxo-5-((1-(2-phenylthiazol-4-yl)-ethyl)amino)-2-(piperidin-1-yl)-pyrimidin-1(6H)-yl)acetamide], the IC50 lay within 100 to 1000 nM.

`CC(=O)N1CCN(c2ncc(N[C@H](C)c3ccc4oc5ccccc5c4c3)c(=O)n2CC(=O)NCc2cc3cnccc3[nH]2)CC1` [Compound 466, (R)-N-((1H-pyrrolo[3,2-c]pyridin-2-yl)methyl)-2-(2-(4-acetylpiperazin-1-yl)-5-((1-(dibenzo[b,d]furan-2-yl)ethyl)-amino)-6-oxopyrimidin-1(6H)-yl)acetamide]: the IC50 was less than 100 nM.

In the case of `COC[C@H]1CCCN(c2ncc(N[C@H](C)c3ccc4oc5ccccc5c4c3)c(=O)n2CC(=O)NCc2cc3cnccc3[nH]2)C1` [Compound 467, N-((1H-pyrrolo[3,2-c]pyridin-2-yl)methyl)-2-(5-(((R)-1-(dibenzo[b,d]furan-2-yl)ethyl)-amino)-2-((S)-3-(methoxy-methyl)piperidin-1-yl)-6-oxo-pyrimidin-1(6H)-yl)acetamide], the IC50 is more than 1000 nM.

As to `C[C@@H](Nc1cnc(N2CCN(C(=O)C3CC3)CC2)n(CC(=O)NCc2cc3cnccc3[nH]2)c1=O)c1ccc2oc3ccccc3c2c1` [Compound 468, (R)-N-((1H-pyrrolo[3,2-c]pyridin-2-yl)methyl)-2-(2-(4-(cyclopropanecarbonyl)piper-azin-1-yl)-5-((1-(dibenzo[b,d]furan-2-yl)ethyl)amino)-6-oxopyrimidin-1(6H)-yl)acet-amide], the IC50 was 100 to 1000 nM.

As for `COC[C@H]1CN(c2ncc(N[C@H](C)c3ccc4oc5ccccc5c4c3)c(=O)n2CC(=O)NCc2cc3cnccc3[nH]2)CCO1` [Compound 469, N-((1H-pyrrolo[3,2-c]pyridin-2-yl)methyl)-2-(5-(((R)-1-(dibenzo[b,d]furan-2-yl)ethyl)-amino)-2-((R)-2-(methoxy-methyl)morpholino)-6-oxo-pyrimidin-1(6H)-yl)acetamide], the IC50 lay in the range of 100 to 1000 nM.

As to `C[C@@H](Nc1ncc(N2CCC(O)CC2)n(CC(=O)NCc2cc3cnccc3[nH]2)c1=O)c1ccc2oc3ccccc3c2c1` [Compound 470, (R)-N-((1H-pyrrolo[3,2-c]pyridin-2-yl)methyl)-2-(3-((1-(dibenzo[b,d]furan-2-yl)ethyl)-amino)-6-(4-hydroxypiperidin-1-yl)-2-oxopyrazin-1(2H)-yl)-acetamide], the IC50 was less than 100 nM.

Take `C[C@@H](Nc1ncc(C2CCOCC2)n(CC(=O)NCc2cc3cnccc3[nH]2)c1=O)c1ccc2oc3ccccc3c2c1` [Compound 471, (R)—N-((1H-Pyrrolo[3,2-c]pyridine-2-yl)methyl)-2-(3-((1-(dibenzo[b,d]furan-2-yl)ethyl)amino)-2-oxo-6-(tetrahydro-2H-pyran-4-yl)pyrazin-1(2H)-yl)acetamide]: the IC50 was less than 100 nM.

Turning to `O=C(Cn1c(N2CCCCC2)cnc(NCc2nnc(-c3ccccc3)s2)c1=O)NCc1cc2cnccc2[nH]1` [Compound 472, N-((1H-pyrrolo[3,2-c]pyridin-2-yl)methyl)-2-(2-oxo-3-(((5-phenyl-1,3,4-thiadiazol-2-yl)-methyl)amino)-6-(piperidin-1-yl)pyrazin-1(2H)-yl)acetamide], the IC50 was less than 100 nM.

As to `O=C(Cn1c(N2CCCCC2)cnc(NCc2cc(-c3ccccc3)no2)c1=O)NCc1cc2cnccc2[nH]1` [Compound 473, N-((1H-pyrrolo[3,2-c]pyridin-2-yl)methyl)-2-(2-oxo-3-(((3-phenylisoxazol-5-yl)methyl)-amino)-6-(piperidin-1-yl)pyr-azin-1(2H)-yl)acetamide], the IC50 was less than 100 nM.

As for `Cc1cnc(CNc2ncc(N3CCCCC3)n(CC(=O)NCc3cc4cnccc4[nH]3)c2=O)o1` [Compound 474, N-((1H-pyrrolo[3,2-c]pyridin-2-yl)methyl)-2-(3-(((5-methyl-oxazol-2-yl)methyl)amino)-2-oxo-6-(piperidin-1-yl)pyr-azin-1(2H)-yl)acetamide], the IC50 was less than 100 nM.
